Reference: patent US20220002332A1, “SCUTELLARIN AMIDE DERIVATIVES, AND PREPARATION METHODS AND USES THEREOF” (HEILONGJIANG BAYI AGRICULTURAL UNIVERSITY, priority 2020, published 2022)

Assays:
Format in all cases: cell-based
[1] = system: human promyelocytic leukemia cell line HL-60; experiment: Cell inhibitory activity (CCK-8 anti-proliferative) on HL-60; conditions: HL-60 cells, 72 hours with drug, CCK-8, 450 nm
Procedure: (§1) Cell lines: human promyelocytic leukemia cell line HL-60, human acute leukemia mononuclear macrophage cell line THP-1, human liver cancer cell line HepG-2
(§2) Test Method for Cell Inhibitory Activity
(§3) Cells are routinely cultured in an incubator at 37° C. and 5% CO2 saturated humidity. The culture medium is RPMI1640 cell culture medium containing 10% of heat-inactivated fetal bovine serum, 100 U/mL of penicillin and 100 U/mL of streptomycin. The culture medium is replaced after 48 hours. After the cells adhere to the wall, they are digested with 0.25% trypsin and passage.
(§4) A vial of cells in the logarithmic growth phase and in good condition is digested with a digestion solution (0.125% trypsin+0.01% EDTA); cell count is 2 to 4×10^4 cell/mL; a cell suspension is made and inoculated on a 96-well plate, 100 μL/well, and cultured in a constant temperature CO2 incubator for 24 hours. The medium is replaced; the test drug is added, 100 μL/well, and cultured for 72 hours. CCK-8 is added to a 96-well plate, 50 μL/well, and incubated in an incubator for 4 hours. The supernatant is aspirated; DMSO is added, 200 μL/well, and shaken on a plate shaker for 10 minutes.

[2] = system: human acute leukemia mononuclear macrophage cell line THP-1; experiment: Cell inhibitory activity (CCK-8 anti-proliferative) on THP-1; conditions: THP-1 cells, 72 hours with drug, CCK-8, 450 nm
Procedure: as §1, §2, §3, §4

[3] = system: human liver cancer cell line HepG-2; experiment: Cell inhibitory activity (CCK-8 anti-proliferative) on HepG-2; conditions: HepG2, HepG-2 cells, 72 hours with drug, CCK-8, 450 nm
Procedure: as §1, §2, §3, §4

Row | SMILES | IC50 [1] [µM] | IC50 [3] [µM] | IC50 [2] [µM]
1 | COc1ccc(-c2cc(=O)c3c(O)c(OC)c(OC4OC(C(=O)Nc5ccc(Cl)cc5)C(O)C(O)C4O)cc3o2)cc1 (stereo not drawn) [Example 21] | 4.86 ± 0.21 | 3.21 ± 0.75 | 4.47 ± 0.35
2 | COc1ccc(-c2cc(=O)c3c(O)c(OC)c(OC4OC(C(=O)Nc5cccc(Cl)c5)C(O)C(O)C4O)cc3o2)cc1 (stereo not drawn) [Example 22] | 3.37 ± 0.22 | 5.42 ± 0.53 | 7.02 ± 0.27
3 | COc1ccc(-c2cc(=O)c3c(O)c(OC)c(OC4OC(C(=O)Nc5cccc(C)c5)C(O)C(O)C4O)cc3o2)cc1 (stereo not drawn) [Example 23] | 5.49 ± 0.16 | 3.15 ± 0.46 | 4.62 ± 0.2
4 | COc1ccc(-c2cc(=O)c3c(O)c(OC)c(OC4OC(C(=O)Nc5ccccc5C)C(O)C(O)C4O)cc3o2)cc1 (stereo not drawn) [Example 24] | 64.2 ± 3.41 | 24.3 ± 0.92 | 27.8 ± 1.12
5 | COc1ccc(-c2cc(=O)c3c(O)c(OC)c(OC4OC(C(=O)Nc5ccc(C)cc5)C(O)C(O)C4O)cc3o2)cc1 (stereo not drawn) [Example 25] | 61.7 ± 2.97 | 39.7 ± 2.31 | 34.4 ± 1.89
6 | COc1ccc(-c2cc(=O)c3c(O)c(OC)c(OC4OC(C(=O)Nc5ccccc5O)C(O)C(O)C4O)cc3o2)cc1 (stereo not drawn) [Example 26] | 15.4 ± 0.88 | 32.1 ± 2.03 | 40.1 ± 1.57
7 | COc1ccc(-c2cc(=O)c3c(O)c(OC)c(OC4OC(C(=O)Nc5ccc(O)cc5)C(O)C(O)C4O)cc3o2)cc1 (stereo not drawn) [Example 27] | 59.3 ± 2.18 | 51.2 ± 0.87 | 89.03 ± 0.59
8 | COc1ccc(NC(=O)C2OC(Oc3cc4oc(-c5ccc(OC)cc5)cc(=O)c4c(O)c3OC)C(O)C(O)C2O)cc1 (stereo not drawn) [Example 28] | 47.2 ± 2.71 | 39.5 ± 1.03 | 53.8 ± 3.58
9 | COc1ccc(-c2cc(=O)c3c(O)c(OC)c(OC4OC(C(=O)Nc5ccccc5OC)C(O)C(O)C4O)cc3o2)cc1 (stereo not drawn) [Example 29] | 53.2 ± 3.47 | 29 ± 2.26 | 19.7 ± 0.89
10 | COc1ccc(-c2cc(=O)c3c(O)c(OC)c(OC4OC(C(=O)Nc5cccc(OC)c5)C(O)C(O)C4O)cc3o2)cc1 (stereo not drawn) [Example 30] | 2.95 ± 0.31 | 15 ± 0.85 | 21 ± 0.49
11 | CCCNC(=O)C1OC(Oc2cc3oc(-c4ccc(OC)cc4)cc(=O)c3c(O)c2OC)C(O)C(O)C1O (stereo not drawn) [Example 31] | 21.8 ± 0.99 | 33 ± 1.13 | 41.6 ± 1.37
12 | CCCCCCNC(=O)C1OC(Oc2cc3oc(-c4ccc(OC)cc4)cc(=O)c3c(O)c2OC)C(O)C(O)C1O (stereo not drawn) [Example 33] | 4.21 ± 0.15 | 3.69 ± 0.63 | 5.76 ± 0.33
13 | COc1ccc(-c2cc(=O)c3c(O)c(OC)c(OC4OC(C(=O)NC5CCCCC5)C(O)C(O)C4O)cc3o2)cc1 (stereo not drawn) [Example 34] | 28.7 ± 0.54 | 11.2 ± 0.72 | 19.1 ± 0.78
14 | O=C(O)[C@H]1O[C@@H](Oc2cc3oc(-c4ccc(O)cc4)cc(=O)c3c(O)c2O)[C@H](O)[C@@H](O)[C@@H]1O [Scutellarin] | 22.7 ± 1.97 | 56.1 ± 1.23 | 48.5 ± 2.21

Continued, in another order:

Row | IC50 [1] [µM] | IC50 [3] [µM] | SMILES | IC50 [2] [µM]
15 | 20 ± 0.19 | 45.7 ± 2.15 | O=C(Nc1ccccc1)C1OC(Oc2cc3oc(-c4ccc(OCc5ccccc5)cc4)cc(=O)c3c(O)c2OCc2ccccc2)C(O)C(O)C1O (stereo not drawn) [Example 5] | 35.37 ± 0.23
16 | 75.88 ± 0.31 | 51.6 ± 0.97 | O=C(Nc1ccc(Cl)cc1)C1OC(Oc2cc3oc(-c4ccc(OCc5ccccc5)cc4)cc(=O)c3c(O)c2OCc2ccccc2)C(O)C(O)C1O (stereo not drawn) [Example 6] | 81.36 ± 0.35
17 | 15.43 ± 0.11 | 11.2 ± 1.07 | O=C(Nc1cccc(Cl)c1)C1OC(Oc2cc3oc(-c4ccc(OCc5ccccc5)cc4)cc(=O)c3c(O)c2OCc2ccccc2)C(O)C(O)C1O (stereo not drawn) [Example 7] | 13.67 ± 0.13
18 | 11.8 ± 0.34 | 12 ± 3.52 | Cc1cccc(NC(=O)C2OC(Oc3cc4oc(-c5ccc(OCc6ccccc6)cc5)cc(=O)c4c(O)c3OCc3ccccc3)C(O)C(O)C2O)c1 (stereo not drawn) [Example 8] | 16.1 ± 0.57
19 | 27.53 ± 0.15 | 19.4 ± 1.11 | Cc1ccccc1NC(=O)C1OC(Oc2cc3oc(-c4ccc(OCc5ccccc5)cc4)cc(=O)c3c(O)c2OCc2ccccc2)C(O)C(O)C1O (stereo not drawn) [Example 9] | 26.8 ± 0.32
20 | 13 ± 0.28 | 7.23 ± 0.31 | Cc1ccc(NC(=O)C2OC(Oc3cc4oc(-c5ccc(OCc6ccccc6)cc5)cc(=O)c4c(O)c3OCc3ccccc3)C(O)C(O)C2O)cc1 (stereo not drawn) [Example 10] | 5.75 ± 0.36
21 | 2.91 ± 0.69 | 5.11 ± 0.43 | O=C(Nc1ccccc1O)C1OC(Oc2cc3oc(-c4ccc(OCc5ccccc5)cc4)cc(=O)c3c(O)c2OCc2ccccc2)C(O)C(O)C1O (stereo not drawn) [Example 11] | 6.11 ± 0.97
22 | 58.9 ± 0.97 | 36.1 ± 0.67 | O=C(Nc1ccc(O)cc1)C1OC(Oc2cc3oc(-c4ccc(OCc5ccccc5)cc4)cc(=O)c3c(O)c2OCc2ccccc2)C(O)C(O)C1O (stereo not drawn) [Example 12] | 33.9 ± 0.78
23 | 20.9 ± 0.46 | 23.9 ± 0.88 | COc1ccc(NC(=O)C2OC(Oc3cc4oc(-c5ccc(OCc6ccccc6)cc5)cc(=O)c4c(O)c3OCc3ccccc3)C(O)C(O)C2O)cc1 (stereo not drawn) [Example 13] | 26.3 ± 0.94
24 | 1.7 ± 0.11 | 6.23 ± 2.03 | COc1ccccc1NC(=O)C1OC(Oc2cc3oc(-c4ccc(OCc5ccccc5)cc4)cc(=O)c3c(O)c2OCc2ccccc2)C(O)C(O)C1O (stereo not drawn) [Example 14] | 12.5 ± 0.35
25 | 4.28 ± 0.31 | 29.2 ± 0.77 | COc1cccc(NC(=O)C2OC(Oc3cc4oc(-c5ccc(OCc6ccccc6)cc5)cc(=O)c4c(O)c3OCc3ccccc3)C(O)C(O)C2O)c1 (stereo not drawn) [Example 15] | 31.62 ± 0.25
26 | 30.6 ± 0.57 | 21 ± 0.81 | CCCNC(=O)C1OC(Oc2cc3oc(-c4ccc(OCc5ccccc5)cc4)cc(=O)c3c(O)c2OCc2ccccc2)C(O)C(O)C1O (stereo not drawn) [Example 16] | 22.4 ± 0.38
27 | 54.1 ± 1.21 | 39.5 ± 1.03 | CC(C)NC(=O)C1OC(Oc2cc3oc(-c4ccc(OCc5ccccc5)cc4)cc(=O)c3c(O)c2OCc2ccccc2)C(O)C(O)C1O (stereo not drawn) [Example 17] | 37.3 ± 0.93
28 | 59.1 ± 0.91 | 46.2 ± 2.03 | CCCCCCNC(=O)C1OC(Oc2cc3oc(-c4ccc(OCc5ccccc5)cc4)cc(=O)c3c(O)c2OCc2ccccc2)C(O)C(O)C1O (stereo not drawn) [Example 18] | 35.8 ± 1.24
29 | 58.8 ± 2.31 | 17.6 ± 1.66 | O=C(NC1CCCCC1)C1OC(Oc2cc3oc(-c4ccc(OCc5ccccc5)cc4)cc(=O)c3c(O)c2OCc2ccccc2)C(O)C(O)C1O (stereo not drawn) [Example 19] | 16.8 ± 0.19
30 | 85.23 ± 0.75 | 16.8 ± 0.19 | COc1ccc(-c2cc(=O)c3c(O)c(OC)c(OC4OC(C(=O)Nc5ccccc5)C(O)C(O)C4O)cc3o2)cc1 (stereo not drawn) [Example 20] | 63.12 ± 0.46
31 | 28.2 ± 1.19 | 26.6 ± 2.19 | COc1ccc(-c2cc(=O)c3c(O)c(OC)c(OC4OC(C(=O)NC(C)C)C(O)C(O)C4O)cc3o2)cc1 (stereo not drawn) [Example 32] | 19 ± 0.36
